Test results: patent US7396837B2, “Antitumoral analogs of lamellarins” (Pharma Mar, S.A.U., priority 2002, dated 2008)

What was measured:
Type in all cases: cell-based
HeLa = assay: SRB colorimetric cell growth inhibition assay, HeLa; details: Homo sapiens, HeLa; for GI50: GI=growth inhibition, read-out: GI50 HELA; for CC50: cell killing (cytotoxic effect), read-out: LC50 HELA; for IC (TGI): total growth inhibition (cytostatic effect), read-out: TGI HELA
Outline: (§1)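 Read-out: sulforhodamine B colorimetry of surviving cell mass after continued exposure of human tumour lines to sample. Values are means ± SD of three wells, expressed as GI, TGI or LC.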

LNCaP = assay: SRB colorimetric cell growth inhibition assay, LNCaP; details: Homo sapiens, LNCaP, LN-caP; for GI50: GI=growth inhibition, read-out: GI50 LN-caP; for CC50: cell killing (cytotoxic effect), read-out: LC50 LN-caP; for IC (TGI): total growth inhibition (cytostatic effect), read-out: TGI LN-caP
Outline: as §1

K-562 = assay: SRB colorimetric cell growth inhibition assay, K-562; details: Homo sapiens, K562, K-562; for GI50: GI=growth inhibition, read-out: GI50 K-562; for CC50: cell killing (cytotoxic effect), read-out: LC50 K-562; for IC (TGI): total growth inhibition (cytostatic effect), read-out: TGI K-562
Outline: as §1

LoVo-Dox = assay: SRB colorimetric cell growth inhibition assay, LoVo-Dox (MDR); details: Homo sapiens, LOVO-DOX; for GI50: GI=growth inhibition, read-out: GI50 LOVO-DOX; for CC50: cell killing (cytotoxic effect), read-out: LC50 LOVO-DOX; for IC (TGI): total growth inhibition (cytostatic effect), read-out: TGI LOVO-DOX
Outline: as §1

HeLa-APL = assay: SRB colorimetric cell growth inhibition assay, HeLa-APL (aplidine resistant); details: Homo sapiens, HELA-APL; for GI50: GI=growth inhibition, read-out: GI50 HELA-APL; for CC50: cell killing (cytotoxic effect), read-out: LC50 HELA-APL; for IC (TGI): total growth inhibition (cytostatic effect), read-out: TGI HELA-APL
Outline: as §1

IGROV-ET = assay: SRB colorimetric cell growth inhibition assay, IGROV-ET (ET-743 resistant); details: Homo sapiens, IGROV-ET; for GI50: GI=growth inhibition, read-out: GI50 IGROV-ET; for CC50: cell killing (cytotoxic effect), read-out: LC50 IGROV-ET; for IC (TGI): total growth inhibition (cytostatic effect), read-out: TGI IGROV-ET
Outline: as §1

SK-MEL-28 = assay: SRB colorimetric cell growth inhibition assay, SK-MEL-28; details: Homo sapiens, SK-MEL-28, MEL-28; for GI50: GI=growth inhibition, read-out: GI50 MEL-28; for CC50: cell killing (cytotoxic effect), read-out: LC50 MEL-28; for IC (TGI): total growth inhibition (cytostatic effect), read-out: TGI MEL-28
Outline: as §1

PANC-1 = assay: SRB colorimetric cell growth inhibition assay, PANC-1; details: Homo sapiens, PANC-1, PANC-1; for GI50: GI=growth inhibition, read-out: GI50 PANC-1; for CC50: cell killing (cytotoxic effect), read-out: LC50 PANC-1; for IC (TGI): total growth inhibition (cytostatic effect), read-out: TGI PANC-1
Outline: as §1

IGROV = assay: SRB colorimetric cell growth inhibition assay, IGROV; details: Homo sapiens, IGROV; for GI50: GI=growth inhibition, read-out: GI50 IGROV; for CC50: cell killing (cytotoxic effect), read-out: LC50 IGROV; for IC (TGI): total growth inhibition (cytostatic effect), read-out: TGI IGROV
Outline: as §1

HT-29 = assay: SRB colorimetric cell growth inhibition assay, HT-29; details: Homo sapiens, HT-29, HT-29; for GI50: GI=growth inhibition, read-out: GI50 HT-29; for CC50: cell killing (cytotoxic effect), read-out: LC50 HT-29; for IC (TGI): total growth inhibition (cytostatic effect), read-out: TGI HT-29
Outline: as §1

A-549 = assay: SRB colorimetric cell growth inhibition assay, A-549; details: Homo sapiens, A549, A-549; for GI50: GI=growth inhibition, read-out: GI50 A-549; for CC50: cell killing (cytotoxic effect), read-out: LC50 A-549; for IC (TGI): total growth inhibition (cytostatic effect), read-out: TGI A-549
Outline: as §1

LoVo = assay: SRB colorimetric cell growth inhibition assay, LoVo; details: Homo sapiens, LoVo; for GI50: GI=growth inhibition, read-out: GI50 LOVO; for CC50: cell killing (cytotoxic effect), read-out: LC50 LOVO; for IC (TGI): total growth inhibition (cytostatic effect), read-out: TGI LOVO
Outline: as §1

DU-145 = assay: SRB colorimetric cell growth inhibition assay, DU-145; details: Homo sapiens, DU-145, DU-145; for GI50: GI=growth inhibition, read-out: GI50 DU-145; for CC50: cell killing (cytotoxic effect), read-out: LC50 DU-145; for IC (TGI): total growth inhibition (cytostatic effect), read-out: TGI DU-145
Outline: as §1

SK-BR-3 = assay: SRB colorimetric cell growth inhibition assay, SK-BR-3; details: Homo sapiens, SK-BR-3, SK-BR-3; for GI50: GI=growth inhibition, read-out: GI50 SK-BR-3; for CC50: cell killing (cytotoxic effect), read-out: LC50 SK-BR-3; for IC (TGI): total growth inhibition (cytostatic effect), read-out: TGI SK-BR-3
Outline: as §1

COc1cc(-c2c3c4cc(OC)c(OC(=O)[C@H](C)N)cc4oc(=O)c3n3ccc4cc(OC(=O)[C@H](C)N)c(OC)cc4c23)ccc1OC(=O)[C@H](C)N [Compound 199]
GI50 (HeLa): 29.9 nM
CC50 (HeLa): 0.651 µM
IC (TGI) (HeLa): 0.199 µM
GI50 (LNCaP): 15.8 nM
CC50 (LNCaP): 392 nM
IC (TGI) (LNCaP): 0.0892 µM
GI50 (K-562): 11.2 nM
CC50 (K-562): 0.281 µM
IC (TGI) (K-562): 0.0555 µM
GI50 (LoVo-Dox): 73.7 nM
CC50 (LoVo-Dox): 12.2 µM
IC (TGI) (LoVo-Dox): 0.499 µM
GI50 (HeLa-APL): 71.8 nM
CC50 (HeLa-APL): 0.574 µM
IC (TGI) (HeLa-APL): 0.242 µM
GI50 (IGROV-ET): 31.3 nM
CC50 (IGROV-ET): 12.2 µM
IC (TGI) (IGROV-ET): 0.159 µM
GI50 (SK-MEL-28): 32.6 nM
CC50 (SK-MEL-28): 7.04 µM
IC (TGI) (SK-MEL-28): 0.151 µM
GI50 (PANC-1): 36.9 nM
CC50 (PANC-1): 8.08 µM
IC (TGI) (PANC-1): 0.276 µM
GI50 (IGROV): 18.9 nM
CC50 (IGROV): 0.873 µM
IC (TGI) (IGROV): 0.0962 µM
GI50 (HT-29): 2.14 µM
CC50 (HT-29): 12.2 µM
IC (TGI) (HT-29): 6.71 µM
GI50 (A-549): 60.6 nM
CC50 (A-549): 12.2 µM
IC (TGI) (A-549): 1.33 µM
GI50 (LoVo): 128 nM
CC50 (LoVo): 0.879 µM
IC (TGI) (LoVo): 0.335 µM
GI50 (DU-145): 3.73 nM
CC50 (DU-145): 0.0372 µM
IC (TGI) (DU-145): 0.00993 µM
GI50 (SK-BR-3): 46.6 nM
CC50 (SK-BR-3): 8.28 µM
IC (TGI) (SK-BR-3): 0.0974 µM

COc1cc(-c2c3c4cc(OC)c(OC(=O)[C@@H]5CCCN5)cc4oc(=O)c3n3ccc4cc(OC(=O)[C@@H]5CCCN5)c(OC)cc4c23)ccc1OC(=O)[C@@H]1CCCN1 [Compound 180]
GI50 (HeLa): 80.6 nM
CC50 (HeLa): 11.1 µM
IC (TGI) (HeLa): 1.99 µM
GI50 (LNCaP): 53 nM
CC50 (LNCaP): 615 nM
IC (TGI) (LNCaP): 0.227 µM
GI50 (K-562): 40 nM
CC50 (K-562): 11.1 µM
IC (TGI) (K-562): 1.53 µM
GI50 (LoVo-Dox): 104 nM
CC50 (LoVo-Dox): 11.1 µM
IC (TGI) (LoVo-Dox): 0.498 µM
GI50 (HeLa-APL): 130 nM
CC50 (HeLa-APL): 11.1 µM
IC (TGI) (HeLa-APL): 1.21 µM
GI50 (IGROV-ET): 69.1 nM
CC50 (IGROV-ET): 11.1 µM
IC (TGI) (IGROV-ET): 0.531 µM
GI50 (SK-MEL-28): 13.4 nM
CC50 (SK-MEL-28): 11.1 µM
IC (TGI) (SK-MEL-28): 0.126 µM
GI50 (PANC-1): 130 nM
CC50 (PANC-1): 11.1 µM
IC (TGI) (PANC-1): 0.0111 µM
GI50 (IGROV): 53 nM
CC50 (IGROV): 11.1 µM
IC (TGI) (IGROV): 0.319 µM
GI50 (HT-29): 11.1 µM
CC50 (HT-29): 11.1 µM
IC (TGI) (HT-29): 11.1 µM
GI50 (A-549): 20.1 nM
CC50 (A-549): 7.26 µM
IC (TGI) (A-549): 0.233 µM
GI50 (LoVo): 535 nM
CC50 (LoVo): 8.51 µM
IC (TGI) (LoVo): 2.01 µM
GI50 (DU-145): 35.9 nM
CC50 (DU-145): 11.1 µM
IC (TGI) (DU-145): 0.0842 µM
GI50 (SK-BR-3): 18.1 nM
CC50 (SK-BR-3): 1.19 µM
IC (TGI) (SK-BR-3): 0.0541 µM

COc1cc2c(cc1O)CCn1c-2c(Br)c2c3cc(OC)c(O)cc3oc(=O)c21 [Compound 188]
GI50 (HeLa): 1050 nM
CC50 (HeLa): 21.8 µM
IC (TGI) (HeLa): 3.69 µM
GI50 (LNCaP): 3300 nM
CC50 (LNCaP): 21800 nM
IC (TGI) (LNCaP): 21.8 µM
GI50 (K-562): 908 nM
CC50 (K-562): 21.8 µM
IC (TGI) (K-562): 4.02 µM
GI50 (LoVo-Dox): 1300 nM
CC50 (LoVo-Dox): 21.8 µM
IC (TGI) (LoVo-Dox): 21.8 µM
GI50 (HeLa-APL): 984 nM
CC50 (HeLa-APL): 15.8 µM
IC (TGI) (HeLa-APL): 31.6 µM
GI50 (IGROV-ET): 2510 nM
CC50 (IGROV-ET): 21.8 µM
IC (TGI) (IGROV-ET): 13.4 µM
GI50 (SK-MEL-28): 1140 nM
CC50 (SK-MEL-28): 21.8 µM
IC (TGI) (SK-MEL-28): 21.8 µM
GI50 (PANC-1): 5560 nM
CC50 (PANC-1): 21.8 µM
IC (TGI) (PANC-1): 21.8 µM
GI50 (IGROV): 5370 nM
CC50 (IGROV): 21.8 µM
IC (TGI) (IGROV): 20.2 µM
GI50 (HT-29): 21.8 µM
CC50 (HT-29): 21.8 µM
IC (TGI) (HT-29): 21.8 µM
GI50 (A-549): 10800 nM
CC50 (A-549): 21.8 µM
IC (TGI) (A-549): 21.8 µM
GI50 (LoVo): 4500 nM
CC50 (LoVo): 21.8 µM
IC (TGI) (LoVo): 21.8 µM
GI50 (DU-145): 3190 nM
CC50 (DU-145): 21.8 µM
IC (TGI) (DU-145): 21.8 µM
GI50 (SK-BR-3): 3600 nM
CC50 (SK-BR-3): 21.8 µM
IC (TGI) (SK-BR-3): 11.5 µM
